The values below come from PMC6245447, “Effect of Dehydroaltenusin-C12 Derivative, a Selective DNA Polymerase α Inhibitor, on DNA Replication in Cultured Cells” (Molecules, 2008).

In this experiment the target is T1, DNA polymerase α (calf thymus pol α) (Bos taurus, UniProt A0AAA9TD94).
T1 construct: gene POLA1; pol α purified from calf thymus
T1 sequence (A0AAA9TD94 1-1441): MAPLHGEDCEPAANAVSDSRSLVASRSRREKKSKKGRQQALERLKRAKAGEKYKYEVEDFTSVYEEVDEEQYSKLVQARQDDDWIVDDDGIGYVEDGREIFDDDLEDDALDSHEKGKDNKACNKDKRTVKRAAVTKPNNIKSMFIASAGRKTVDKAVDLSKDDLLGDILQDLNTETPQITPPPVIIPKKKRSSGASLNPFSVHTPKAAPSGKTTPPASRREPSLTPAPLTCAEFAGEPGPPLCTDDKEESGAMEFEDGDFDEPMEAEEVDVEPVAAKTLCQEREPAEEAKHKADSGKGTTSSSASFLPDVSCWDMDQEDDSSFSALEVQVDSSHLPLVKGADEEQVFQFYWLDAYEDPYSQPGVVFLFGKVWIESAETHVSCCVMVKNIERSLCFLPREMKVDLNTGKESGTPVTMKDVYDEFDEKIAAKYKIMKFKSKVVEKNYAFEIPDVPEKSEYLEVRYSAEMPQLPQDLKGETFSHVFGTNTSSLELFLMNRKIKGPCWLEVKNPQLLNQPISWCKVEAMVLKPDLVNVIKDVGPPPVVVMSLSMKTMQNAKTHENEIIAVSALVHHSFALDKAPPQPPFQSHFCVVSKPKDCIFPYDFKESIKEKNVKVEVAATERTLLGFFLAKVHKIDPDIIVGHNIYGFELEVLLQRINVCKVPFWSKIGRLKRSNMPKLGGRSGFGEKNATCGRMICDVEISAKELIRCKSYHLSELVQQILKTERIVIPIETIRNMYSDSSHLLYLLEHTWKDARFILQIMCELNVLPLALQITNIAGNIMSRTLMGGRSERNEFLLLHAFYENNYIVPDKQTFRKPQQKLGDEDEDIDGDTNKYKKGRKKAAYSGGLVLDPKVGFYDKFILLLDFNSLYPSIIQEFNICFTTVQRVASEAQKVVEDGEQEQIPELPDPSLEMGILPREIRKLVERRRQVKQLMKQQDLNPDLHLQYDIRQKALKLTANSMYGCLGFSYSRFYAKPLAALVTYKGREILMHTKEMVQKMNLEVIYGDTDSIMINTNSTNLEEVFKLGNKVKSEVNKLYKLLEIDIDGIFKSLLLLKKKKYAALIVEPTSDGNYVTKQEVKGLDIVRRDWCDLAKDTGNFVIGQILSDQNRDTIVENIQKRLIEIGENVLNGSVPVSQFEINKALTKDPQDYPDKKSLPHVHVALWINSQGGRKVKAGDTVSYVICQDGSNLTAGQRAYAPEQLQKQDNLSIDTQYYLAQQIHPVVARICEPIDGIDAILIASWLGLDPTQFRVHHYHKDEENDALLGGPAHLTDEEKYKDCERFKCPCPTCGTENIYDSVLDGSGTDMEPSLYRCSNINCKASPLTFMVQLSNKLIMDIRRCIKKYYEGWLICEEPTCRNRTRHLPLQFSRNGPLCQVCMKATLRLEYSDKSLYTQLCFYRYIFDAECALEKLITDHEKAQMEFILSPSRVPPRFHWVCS
Nature of the experiment: [3H]-dTTP incorporation polymerase assay on poly(dA)/oligo(dT)[…]-18 with purified pol α. Type of experiment: biochemical.

Where two headings read alike, the source gives them in different places.

Regarding `C[C@@]1(CO)[C@H](O)CC[C@@]2(C)[C@H]1CC[C@H]1C[C@@H]3C[C@@]12CC[C@]3(O)CO` [compound 3, aphidicolin], the IC50 (as a rule, the concentration that inhibits the measured activity by half) amounted to 14.5 µM.
Turning to `CCCCCCCCCCCCOc1cc(O)c2c(c1)C1=CC(=O)C(O)=CC1(C)OC2=O` (stereo not drawn) [compound 2, C12], for the setting “read-out: IC50”, the IC50 was 1.4 µM.
Still for that read-out and setting: under `COc1cc(O)c2c(c1)C1=CC(=O)C(O)=CC1(C)OC2=O` (stereo not drawn) [compound 1, Dehydroaltenusin] stands 9.9 µM.
